This passage reports IC50, T/C and Tubulin polymerization ratio results from ChEMBL document CHEMBL1153670 (Bioorg Med Chem Lett, 1995).

Data set [1] concerns HCT-116. In words: In vitro cytotoxicity was determined by inhibition against HCT116 cell line proliferation after 72 hours of incubation. It is filed as cell-based. To be noted: Homo sapiens, HCT-116, 72 h.
For data set [2], the system named is M109. In words: In vivo cytotoxicity of intraperitoneally administered compound was determined against ip implanted murine M-109 lung carcinoma; NA means not active. It is filed as organism-based. To be noted: mouse.
The subject of data set [3] is HCT-116. In words: Potency relative to paclitaxel in a tubulin polymerization assay in HCT116 cell line. The format is functional, Homo sapiens.
For data set [4], the system named is HCT-116. In words: cells. The conditions noted are these: Homo sapiens.
Data set [5] concerns M109. In words: In vivo cytotoxicity of intraperitoneally administered compound at dose 50 mgkg/inj was determined against ip implanted murine M-109 lung carcinoma. To be noted: mouse. It is filed as organism-based. Further details: dose mgkg, route intraperitoneal; call rule not given here.
Data set [6] has as its system M109. In words: In vivo cytotoxicity of intraperitoneally administered compound at dose 32 mg/kg/inj was determined against ip implanted murine M-109 lung carcinoma. The format is organism-based. Further details: route intraperitoneal. To be noted: mouse.
In data set [7] the test system is M109. In words: In vivo cytotoxicity of intraperitoneally administered compound at dose 1.6 mg/kg/inj was determined against ip implanted murine M-109 lung carcinoma. The format is organism-based. Further details: route intraperitoneal. To be noted: mouse.
The test system of data set [8] is M109. In words: In vivo cytotoxicity of intraperitoneally administered compound at dose 4 mg/kg/inj was determined against ip implanted murine M-109 lung carcinoma. The format is organism-based. Further details: route intraperitoneal. The conditions noted are these: mouse.
The test system of data set [9] is M109. In words: In vivo cytotoxicity of intraperitoneally administered compound at dose 6 mg/kg/inj was determined against ip implanted murine M-109 lung carcinoma. The format is organism-based. Further details: route intraperitoneal. To be noted: mouse.
The test system of data set [10] is M109. In words: In vivo cytotoxicity of intraperitoneally administered compound at dose 1 mg/kg/injection was determined against ip implanted murine M-109 lung carcinoma. Further details: route intraperitoneal. The conditions noted are these: mouse. The format is organism-based.
For data set [11], the system named is M109. In words: In vivo cytotoxicity of intraperitoneally administered compound at dose 16 mg/kg/inj was determined against ip implanted murine M-109 lung carcinoma. It is filed as organism-based. Further details: route intraperitoneal. To be noted: mouse.
Data set [12] concerns M109. In words: In vivo cytotoxicity of intraperitoneally administered compound at dose 25 mgkg/inj was determined against ip implanted murine M-109 lung carcinoma. It is filed as organism-based. Further details: dose mgkg, route intraperitoneal. To be noted: mouse.
For data set [13], the system named is M109. In words: In vivo cytotoxicity of intraperitoneally administered compound at dose 3 mg/kg/inj was determined against ip implanted murine M-109 lung carcinoma. Further details: route intraperitoneal. The format is organism-based. The conditions noted are these: mouse.

The term IC50 denotes the midpoint of a concentration-inhibition curve. A lower IC50 goes with higher potency. As for `CC(=O)O[C@H]1C(=O)[C@@]2(C)C([C@H](OC(=O)c3ccccc3)[C@]3(O)C[C@H](OC(=O)[C@H](O)C(C=C(C)C)NC(=O)OC(C)(C)C)C(C)=C1C3(C)C)[C@]1(OC(=O)C3CC3)CO[C@@H]1C[C@@H]2O` (stereo not given in full), the concentration for half-maximal inhibition (IC50) with HCT-116 [1] turned out to be 7.7 nM; in the data set on HCT-116 [4] it was 2.85 nM. In addition, the T/C entry with M109 [2] was “Not Active”. For the same compound, in the data set with HCT-116 [3], the Tubulin polymerization ratio is on record as 0.36.

With `COC(=O)O[C@@]12CO[C@@H]1C[C@H](O)[C@@]1(C)C(=O)[C@H](OC(C)=O)C3=C(C)[C@@H](OC(=O)[C@H](O)C(NC(=O)c4ccccc4)c4ccccc4)C[C@@](O)([C@@H](OC(=O)c4ccccc4)C12)C3(C)C` (stereo not given in full), the results for the IC50 in the data set on HCT-116 [1] and with HCT-116 [4] were 2 nM and 0.5 nM, respectively. The compound also came in with a T/C with M109 [5] of 161%. Also, the Tubulin polymerization ratio in the data set on HCT-116 [3] stood at 0.41.

`COC(=O)O[C@@]12CO[C@@H]1C[C@H](O)[C@@]1(C)C(=O)[C@H](OC(C)=O)C3=C(C)[C@@H](OC(=O)[C@H](O)C(NC(=O)OC(C)(C)C)c4ccco4)C[C@@](O)([C@@H](OC(=O)c4ccccc4)C12)C3(C)C` (stereo not given in full): the figures for the IC50 in the data set on HCT-116 [1] and in the data set on HCT-116 [4] were 1.6 nM and 0.4 nM, respectively. In the data set with M109 [6], the T/C worked out at 183%. Further, the Tubulin polymerization ratio in the data set on HCT-116 [3] came out at 0.66.

For `CC(=O)O[C@H]1C(=O)[C@@]2(C)C([C@H](OC(=O)c3ccccc3)[C@]3(O)C[C@H](OC(=O)[C@H](O)C(NC(=O)OC(C)(C)C)c4ccco4)C(C)=C1C3(C)C)[C@]1(OC(=O)C3CCC3)CO[C@@H]1C[C@@H]2O` (stereo not given in full), the results for the 50% inhibitory concentration (IC50) in the data set on HCT-116 [1] and in the data set on HCT-116 [4] were 1.9 nM and 0.48 nM, respectively. The T/C result in the data set with M109 [2] was “Not Active”. In addition, in the data set with HCT-116 [3], the Tubulin polymerization ratio was 0.48.

`CC(=O)O[C@H]1C(=O)[C@@]2(C)C([C@H](OC(=O)c3ccccc3)[C@]3(O)C[C@H](OC(=O)[C@H](O)C(NC(=O)OC(C)(C)C)c4ccccc4)C(C)=C1C3(C)C)[C@]1(OC(=O)C3CC3)CO[C@@H]1C[C@@H]2O` (stereo not given in full) came in with a T/C in the data set with M109 [7] of 115%. The 50% inhibitory concentration (IC50) with HCT-116 [1] is 0.8 nM; with HCT-116 [4], 0.2 nM. In addition, in the data set on HCT-116 [3], the Tubulin polymerization ratio was determined as 0.22.

Regarding `CC(=O)O[C@H]1C(=O)[C@@]2(C)C([C@H](OC(=O)c3ccccc3)[C@]3(O)C[C@H](OC(=O)[C@H](O)C(NC(=O)OC(C)(C)C)c4ccco4)C(C)=C1C3(C)C)[C@]1(OC(=O)C3CC3)CO[C@@H]1C[C@@H]2O` (stereo not given in full), the half-inhibitory concentration (IC50) in the data set with HCT-116 [1] turned out to be 1.3 nM; in the data set with HCT-116 [4], 0.33 nM. Moreover, the Tubulin polymerization ratio in the data set with HCT-116 [3] is 0.33. In the data set on M109 [8], the T/C turned out to be 100%.

Turning to `CCOC(=O)O[C@@]12CO[C@@H]1C[C@H](O)[C@@]1(C)C(=O)[C@H](OC(C)=O)C3=C(C)[C@@H](OC(=O)[C@H](O)C(NC(=O)c4ccccc4)c4ccco4)C[C@@](O)([C@@H](OC(=O)c4ccccc4)C12)C3(C)C` (stereo not given in full), the IC50 with HCT-116 [1] amounted to 1.5 nM; in the data set with HCT-116 [4], 0.43 nM. Further, the T/C entry in the data set with M109 [2] is on record as “Not Active”. Besides, the Tubulin polymerization ratio with HCT-116 [3] turned out to be 0.4.

As for `CCOC(=O)O[C@@]12CO[C@@H]1C[C@H](O)[C@@]1(C)C(=O)[C@H](OC(C)=O)C3=C(C)[C@@H](OC(=O)[C@H](O)C(NC(=O)c4ccccc4)c4ccccc4)C[C@@](O)([C@@H](OC(=O)c4ccccc4)C12)C3(C)C` (stereo not given in full), in the data set on M109 [9], the T/C turned out to be 142 mg kg-1 injection-1. The concentration for half-maximal inhibition (IC50) with HCT-116 [1] worked out at 1 nM; with HCT-116 [4], 0.25 nM. Further, the Tubulin polymerization ratio in the data set with HCT-116 [3] was 0.64.

On to `CCCC(=O)O[C@@]12CO[C@@H]1C[C@H](O)[C@@]1(C)C(=O)[C@H](OC(C)=O)C3=C(C)[C@@H](OC(=O)[C@H](O)C(NC(=O)OC(C)(C)C)c4ccco4)C[C@@](O)([C@@H](OC(=O)c4ccccc4)C12)C3(C)C` (stereo not given in full), for which the IC50 in the data set on HCT-116 [1] amounted to 2.8 nM; in the data set on HCT-116 [4] it was 0.7 nM. In addition, the Tubulin polymerization ratio in the data set with HCT-116 [3] is 0.5. The compound further returned a T/C with M109 [10] of 96 mg kg-1 injection-1.

As for `CC(=O)O[C@H]1C(=O)[C@@]2(C)C([C@H](OC(=O)c3ccccc3)[C@]3(O)C[C@H](OC(=O)[C@H](O)C(NC(=O)c4ccccc4)c4ccco4)C(C)=C1C3(C)C)[C@]1(OC(=O)C3CCC3)CO[C@@H]1C[C@@H]2O` (stereo not given in full), in the data set with M109 [11], the T/C was determined as 188 mg kg-1 injection-1. Besides, the half-inhibitory concentration (IC50) with HCT-116 [1] came out at 1.6 nM; in the data set on HCT-116 [4] it was 0.4 nM. The Tubulin polymerization ratio with HCT-116 [3] was 0.29.

Regarding `CCOC(=O)O[C@@]12CO[C@@H]1C[C@H](O)[C@@]1(C)C(=O)[C@H](OC(C)=O)C3=C(C)[C@@H](OC(=O)[C@H](O)C(NC(=O)OC(C)(C)C)c4ccco4)C[C@@](O)([C@@H](OC(=O)c4ccccc4)C12)C3(C)C` (stereo not given in full), the results for the half-inhibitory concentration (IC50) in the data set on HCT-116 [1] and in the data set with HCT-116 [4] were 2.95 nM and 0.59 nM, respectively. In the data set with HCT-116 [3], the Tubulin polymerization ratio turned out to be 0.3. Further, the T/C in the data set on M109 [8] worked out at 144%.

Take `CCCC(=O)O[C@@]12CO[C@@H]1C[C@H](O)[C@@]1(C)C(=O)[C@H](OC(C)=O)C3=C(C)[C@@H](OC(=O)[C@H](O)C(NC(=O)c4ccccc4)c4ccccc4)C[C@@](O)([C@@H](OC(=O)c4ccccc4)C12)C3(C)C` (stereo not given in full): the concentration for half-maximal inhibition (IC50) in the data set with HCT-116 [1] was 1.1 nM; with HCT-116 [4], 0.25 nM. In the data set on HCT-116 [3], the Tubulin polymerization ratio worked out at 0.61. Besides, the T/C in the data set with M109 [12] worked out at 164 mg kg-1 injection-1.

Regarding `CC(=O)O[C@H]1C(=O)[C@@]2(C)C([C@H](OC(=O)c3ccccc3)[C@]3(O)C[C@H](OC(=O)[C@H](O)C(C=C(C)C)NC(=O)c4ccccc4)C(C)=C1C3(C)C)[C@]1(OC(=O)C3CC3)CO[C@@H]1C[C@@H]2O` (stereo not given in full), the figures for the IC50 in the data set with HCT-116 [1] and with HCT-116 [4] were 1.7 nM and 0.61 nM, respectively. The T/C entry with M109 [2] is recorded as “Not Active”. Further, the Tubulin polymerization ratio with HCT-116 [3] was found to be 0.36.

On to `CC(=O)O[C@H]1C(=O)[C@@]2(C)C([C@H](OC(=O)c3ccccc3)[C@]3(O)C[C@H](OC(=O)[C@H](O)C(NC(=O)c4ccccc4)c4ccccc4)C(C)=C1C3(C)C)[C@]1(OC(=O)C3CC3)CO[C@@H]1C[C@@H]2O` (stereo not given in full), for which the T/C with M109 [9] was found to be 188 mg kg-1 injection-1. In addition, the concentration for half-maximal inhibition (IC50) with HCT-116 [1] came to 1 nM; in the data set with HCT-116 [4] it was 0.25 nM. Also, in the data set on HCT-116 [3], the Tubulin polymerization ratio came to 0.24.

In the case of `CC(=O)O[C@H]1C(=O)[C@@]2(C)C([C@H](OC(=O)c3ccccc3)[C@]3(O)C[C@H](OC(=O)[C@H](O)C(NC(=O)c4ccccc4)c4ccco4)C(C)=C1C3(C)C)[C@]1(OC(=O)C3CC3)CO[C@@H]1C[C@@H]2O` (stereo not given in full), the half-maximal inhibitory concentration (IC50) came out at 0.9 nM with HCT-116 [1] and 0.22 nM in the data set with HCT-116 [4]. Besides, in the data set with HCT-116 [3], the Tubulin polymerization ratio is on record as 0.33. Also, the T/C in the data set on M109 [13] came to 132 mg kg-1 injection-1.
